Data on 22 molecules can be found in US20070142437A1, “CHEMICAL COMPOUNDS” (priority 2005, published 2007).

Holding throughout (format): biochemical
Assay [1] addresses T1, CDK4 (Homo sapiens, UniProt P11802).
T1 construct: made in house
Description: CDK4 substrate phosphorylation assay (Rb protein, 33P-ATP). Conditions: Inhibition of CDK4. The method, then:
(§1) The compounds of the present invention have valuable pharmacologic properties. Different compounds from this class are particularly effective at inhibiting CDK2 and/or CDK4 enzymes at concentrations, which range from 0.0001 to 1 μM and additionally show specificity relative to other kinases. Substrate phosphorylation assays were carried out as follows:
Cyclin D1 and cyclin-dependent kinase 4 were expressed utilizing a baculovirus expression system. The catalytic activity of CDK4 protein was assayed by measuring the phosphorylation of Rb protein. A truncated Rb protein (residues 773-928 of the native retinoblastoma protein, fused to glutathione S-transferase to facilitate purification) was used as the phosphoryl acceptor. The assay conditions were 100 mM HEPES (N-[2-hydroxyethyl]piperzine-N′-[2-ethanesulfonic acid]), pH 7.5, 0.5 μM GST-Rb protein, 1 μCi/mL [^33P]-ATP (1 nM-20 μM), 5-20 mM MgCl2, 2.5 mM EDTA, 1 mM dithiotheitol, 0.2 mg/mL bovine serum albumin, 2% (v/v) dimethyl sulfoxide (DMSO), CDK4 enzyme (5-50 nM) in a final volume of 50 μL. Reactions were incubated for time periods of 10-60 min at 30° C. and terminated by the addition of 50 μL quench (1 mM ATP/100 mM EDTA, pH 7.0). Detection of protein phosphorylation was accomplished by scintillation counting following collection of protein in 96 well plates coated with Glutathione or trapping of protein onto phosphocellulose filters. Counts detected by these methodologies minus the appropriate background were assumed to be proportional to the reaction initial rates. IC50 values were determined by measuring enzyme activity in the presence of different inhibitor concentrations (0.1 nM to 50 μM). IC50s were determined by a least squares fit to the equation CPM=Vmax*(1−([I]/(K+[I])))+nsb, or pIC50s were determined by a fit to the equation CPM=nsb+(Vmax−nsb)/(1+(x/10^x−pIC50)), where nsb are the background counts.

Assay [2] addresses T2, CDK2 (Homo sapiens, UniProt P24941).
T2 construct: made in house
Description: CDK2 substrate phosphorylation assay (biotinylated peptide, 32P-ATP). To be noted: Inhibition of CDK2. The method, then: as §1
Cyclin dependent protein kinase 2 assays utilized the peptide Biotin-aminohexyl-ARRPMSPKKKA-NH2 as phosphoryl group acceptor. CDK2 was expressed utilizing a baculovirus expression system and was partially purified to comprise 20-80% of total protein, with no detectable competing reactions present. Typically, assays were performed by incubating enzyme (0.2-10 nM), with and without inhibitor, peptide substrate (1-10 nM), [g-^32P]ATP (1-20 nM), and 10-20 mM Mg^2+ for periods of time generally within the range 10-120 minutes. Reactions were terminated with 0.2-2 volumes of either 20% acetic acid or 50-100 mM EDTA buffered to pH 7 (substrate consumption <20%). The buffer employed in enzyme assay was 100 mM HEPES pH 7.5 containing 0.1 mg/mL BSA and 5% DMSO. Inhibitors were diluted in 100% DMSO prior to addition into the assay. Detection of peptide phosphorylation was accomplished by scintillation counting following either collection of peptide onto phosphocellulose filters (for reactions stopped with acetic acid), collection of peptide in wells of 96 well plates coated with Streptavidin (Pierce) (reactions were stopped with EDTA), or addition of Avidin coated Scintillant impregnated beads (Scintillation Proximity Assays from Amersham, reactions were stopped with EDTA). Counts detected by any of these methodologies minus the appropriate background (assays with additional 40 mM EDTA or lacking peptide substrate) were assumed to be proportional to the reaction initial rates, and IC50s were determined by a least squares fit to the equation CPM=Vmax*(1−([I]/(K+[I])))+nsb, or −pIC50s were determined by a fit to the equation CPM=nsb+(Vmax−nsb)/(1+(x/10^x−pIC50)), where nsb are the background counts. Filters are washed four times with 75 mM phosphoric acid. Radioactivity was determined by liquid scintillation counting.

Assay [3] addresses hVEGFR2 (Homo sapiens, UniProt P35968). Description: VEGFR2 HTRF assay. Conditions: Inhibition of VEGFR2. The method, then:
The compounds of the present invention elicit important and measurable pharmacological responses. Different compounds from this class are particularly effective at inhibiting VEGFR2 enzymes, as described by the VEGFR2 HTRF assay below, at concentrations, which range from 0.0001 to 1 μM.
The assays were performed in 96-well black plates. 10 nM hVEGFR2 was used to phosphorylate 0.36 μM peptide (Biotin-Ahx-EEEEYFELVAKKKK) in the presence of 75 μM ATP, 5 mM MgCl2, 0.3 mM DTT, 0.1 mg/ml BSA, and 0.1 M HEPES (pH 7.5). 10 μl 0.5 M EDTA was added to reactions as negative controls. The 50 μl kinase reaction with or without inhibitors in 5% DMSO was carried out at room temperature for 45 minutes, then stopped by 40 μl of 125 mM EDTA. 2.4 μg/ml Streptavidin-APC and 0.15 μg/ml Eu-α-pY, in the presence of 0.1 mg/ml BSA, 0.1 M HEPES (pH7.5), were added to a final volume of 140 μl. The plate was incubated for 10 min at room temperature (22° C.) and read on the Victor with the time resolved fluorescence mode by exciting at 340 nm and reading the emission at 665 nm.
• Peptide from Synpep (Dublin, Calif.) • ATP, MgCl2, DTT, BSA, HEPES, EDTA, DMSO from Sigma Streptavidin-APC from Molecular Probes (Eugene, Oreg.) • Eu-α-pY from EG&G Wallac (Gaithersburg, Md.)

T1 sequence (P11802 whole entry, species assumed): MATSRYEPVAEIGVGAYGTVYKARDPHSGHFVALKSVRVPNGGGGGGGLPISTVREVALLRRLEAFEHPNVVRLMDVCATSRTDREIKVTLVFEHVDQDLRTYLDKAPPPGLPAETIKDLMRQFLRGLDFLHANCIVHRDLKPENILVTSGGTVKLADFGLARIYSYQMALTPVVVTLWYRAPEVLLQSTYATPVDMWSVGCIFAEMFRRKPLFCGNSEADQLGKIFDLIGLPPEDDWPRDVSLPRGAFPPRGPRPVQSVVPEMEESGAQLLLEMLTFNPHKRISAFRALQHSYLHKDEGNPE
T1 sequence (P24385 whole entry partner, species assumed): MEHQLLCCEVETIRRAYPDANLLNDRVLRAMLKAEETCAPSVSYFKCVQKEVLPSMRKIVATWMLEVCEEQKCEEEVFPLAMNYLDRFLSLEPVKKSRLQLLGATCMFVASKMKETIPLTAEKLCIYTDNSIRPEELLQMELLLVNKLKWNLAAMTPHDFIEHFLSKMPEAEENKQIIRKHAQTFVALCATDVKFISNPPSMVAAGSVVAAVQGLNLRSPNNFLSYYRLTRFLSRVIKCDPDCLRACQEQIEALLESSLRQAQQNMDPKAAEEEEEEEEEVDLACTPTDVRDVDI
Sequence of hVEGFR2 (P35968 20-1356): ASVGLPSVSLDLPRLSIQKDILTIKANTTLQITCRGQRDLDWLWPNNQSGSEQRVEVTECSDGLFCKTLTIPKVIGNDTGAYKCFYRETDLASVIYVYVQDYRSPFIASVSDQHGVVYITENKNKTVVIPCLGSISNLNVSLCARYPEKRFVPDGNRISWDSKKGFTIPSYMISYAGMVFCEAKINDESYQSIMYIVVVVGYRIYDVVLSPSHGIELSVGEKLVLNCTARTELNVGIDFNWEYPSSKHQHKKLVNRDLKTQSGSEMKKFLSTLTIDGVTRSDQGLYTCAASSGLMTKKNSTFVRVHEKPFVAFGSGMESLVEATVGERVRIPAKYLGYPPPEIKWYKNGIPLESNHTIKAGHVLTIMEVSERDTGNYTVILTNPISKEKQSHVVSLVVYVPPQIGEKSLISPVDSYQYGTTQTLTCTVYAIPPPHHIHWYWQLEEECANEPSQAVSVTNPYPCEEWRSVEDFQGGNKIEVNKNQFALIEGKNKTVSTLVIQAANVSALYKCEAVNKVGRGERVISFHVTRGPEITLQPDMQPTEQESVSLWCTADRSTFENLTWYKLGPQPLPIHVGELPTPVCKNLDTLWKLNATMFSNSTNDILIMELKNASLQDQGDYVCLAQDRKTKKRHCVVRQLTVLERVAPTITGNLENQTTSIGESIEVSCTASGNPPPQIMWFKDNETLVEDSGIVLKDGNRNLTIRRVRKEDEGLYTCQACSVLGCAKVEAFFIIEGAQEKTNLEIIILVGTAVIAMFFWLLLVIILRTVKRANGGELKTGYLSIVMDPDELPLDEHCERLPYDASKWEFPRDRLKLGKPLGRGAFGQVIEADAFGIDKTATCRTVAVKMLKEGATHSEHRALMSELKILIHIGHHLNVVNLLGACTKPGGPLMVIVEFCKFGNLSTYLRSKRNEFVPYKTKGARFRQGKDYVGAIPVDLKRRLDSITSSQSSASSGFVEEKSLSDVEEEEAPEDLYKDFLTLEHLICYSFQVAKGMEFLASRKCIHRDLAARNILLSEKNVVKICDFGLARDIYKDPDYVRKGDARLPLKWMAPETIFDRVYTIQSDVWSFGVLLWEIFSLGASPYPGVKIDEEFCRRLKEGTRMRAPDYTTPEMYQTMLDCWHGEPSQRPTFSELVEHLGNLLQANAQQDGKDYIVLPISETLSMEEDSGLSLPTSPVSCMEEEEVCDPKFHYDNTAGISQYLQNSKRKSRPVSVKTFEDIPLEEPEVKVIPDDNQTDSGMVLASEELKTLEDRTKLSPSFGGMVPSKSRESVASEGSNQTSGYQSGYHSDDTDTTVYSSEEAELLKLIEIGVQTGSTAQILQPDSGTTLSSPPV

As for `COc1cccc(-c2cnc(Nc3ccccc3)o2)c1` [Example 1, 5-(3-methoxyphenyl)-N-phenyl-1,3-oxazol-2-amine], the IC50 is below 1000 nM in assay [1], below 1000 nM in assay [2] and below 10000 nM in assay [3].

`Oc1cccc(-c2cnc(Nc3ccccc3)o2)c1` [Example 2, 3-(2-anilino-1,3-oxazol-5-yl)phenol]: the IC50 in assay [1], in assay [2] and in assay [3] was below 1000 nM each time.

Take `CN1CCN(c2ccc(Nc3ncc(-c4ccccc4)o3)cc2)CC1` [Example 3, N-[4-(4-methylpiperazin-1-yl)phenyl]-5-phenyl-1,3-oxazol-2-amine]: the half-inhibitory concentration (IC50) in assay [1] was below 1000 nM; in assay [2], below 10000 nM; in assay [3] it was below 1000 nM.

As for `COc1cccc(-c2cnc(Nc3ccc(N4CCN(C)CC4)cc3)o2)c1` [Example 4, 5-(3-Methoxyphenyl)-N-[4-(4-methylpiperazin-1-yl)phenyl]-1,3-oxazol-2-amine], the IC50 is below 100 nM in assay [1], below 1000 nM in assay [2] and below 1000 nM in assay [3].

For the molecule `CCOc1cccc(-c2cnc(Nc3ccc(N4CCN(C)CC4)cc3)o2)c1` [Example 5, 5-(3-Ethoxyphenyl)-N-[4-(4-methylpiperazin-1-yl)phenyl]-1,3-oxazol-2-amine], the half-inhibitory concentration (IC50) in assay [1] was below 100 nM; in assay [2], below 1000 nM; in assay [3], below 1000 nM.

On to `CCN1CCN(c2ccc(Nc3ncc(-c4cccc(OC)c4)o3)cc2)CC1` [Example 6, N-[4-(4-Ethylpiperazin-1-yl)phenyl]-5-(3-methoxyphenyl)-1,3-oxazol-2-amine], for which the values for the concentration for half-maximal inhibition (IC50) in assay [1], in assay [2] and in assay [3] were below 100 nM, below 1000 nM and below 1000 nM, respectively.

As for `CCN1CCN(c2ccc(Nc3ncc(-c4ccccc4)o3)cc2)CC1` [Example 7, N-[4-(4-Ethylpiperazin-1-yl)phenyl]-5-phenyl-1,3-oxazol-2-amine], the half-inhibitory concentration (IC50) in assay [1] is below 1000 nM; in assay [2] it was below 10000 nM; in assay [3] it was below 1000 nM.

With `c1ccc(-c2cnc(Nc3ccc(CN4CCOCC4)cc3)o2)cc1` [Example 8, N-[4-(Morpholin-4-ylmethyl)phenyl]-5-phenyl-1,3-oxazol-2-amine], the IC50 in assay [1] is below 1000 nM; in assay [2] it was below 10000 nM; in assay [3] it was below 1000 nM.

For `COc1cccc(-c2cnc(Nc3ccc(N4CCOCC4)cc3)o2)c1` [Example 9, 5-(3-Methoxyphenyl)-N-(4-morpholin-4-ylphenyl)-1,3-oxazol-2-amine], the IC50 in assay [1], in assay [2] and in assay [3] was below 1000 nM each time.

As for `COc1cccc(-c2cnc(Nc3ccc(N4CCCCC4)cc3)o2)c1` [Example 10, 5-(3-Methoxyphenyl)-N-(4-piperidin-1-ylphenyl)-1,3-oxazol-2-amine], the 50% inhibitory concentration (IC50) was below 10000 nM in assay [1] and below 1000 nM in assay [3].

Consider `COc1cccc(-c2cnc(Nc3ccc(CN4CCOCC4)cc3)o2)c1` [Example 11, 5-(3-Methoxyphenyl)-N-[4-(morpholin-4-ylmethyl)phenyl]-1,3-oxazol-2-amine], for which the IC50 in assay [1], in assay [2] and in assay [3] was below 1000 nM in each case.

In the case of `CC(C)Oc1cccc(-c2cnc(Nc3ccc(N4CCN(C)CC4)cc3)o2)c1` [Example 12, 5-(3-Isopropoxyphenyl)-N-[4-(4-methylpiperazin-1-yl)phenyl]-1,3-oxazol-Z -amine], the IC50 in assay [1] was below 100 nM; in assay [2] it was below 100 nM; in assay [3] it was below 1000 nM.

`CN1CCN(c2ccc(Nc3ncc(-c4cccc(OC5CCCC5)c4)o3)cc2)CC1` [Example 13, 5-[3-(cyclopentyloxy)phenyl]-N-[4-(4-methylpiperazin-1-yl)phenyl]-1,3-oxazol-2-amine]: the half-inhibitory concentration (IC50) in assay [1], in assay [2] and in assay [3] was below 100 nM throughout.

Consider `CC(C)COc1cccc(-c2cnc(Nc3ccc(N4CCN(C)CC4)cc3)o2)c1` [Example 14, 5-(3-Isobutoxyphenyl)-N-[4-(4-methylpiperazin-1-yl)phenyl]-1,3-oxazol-2-amine], for which the IC50 was below 100 nM in assay [1], below 1000 nM in assay [2] and below 1000 nM in assay [3].

As to `CN1CCN(c2ccc(Nc3ncc(-c4cccc(OCc5ccccc5)c4)o3)cc2)CC1` [Example 15, 5-[3-(Benzyloxy)phenyl]-N-[4-(4-methylpiperazin-1-yl)phenyl]-1,3-oxazol-2-amine], the 50% inhibitory concentration (IC50) in assay [1] is below 100 nM; in assay [2], below 1000 nM; in assay [3], below 1000 nM.

As to `C=C(C)COc1cccc(-c2cnc(Nc3ccc(N4CCN(C)CC4)cc3)o2)c1` [Example 16, N-[4-(4-methylpiperazin-1-yl)phenyl]-5-{3-[(2-methylprop-2-enyl)oxy]phenyl}-1,3-oxazol-2-amine], the figures for the IC50 in assay [1], in assay [2] and in assay [3] were below 100 nM, below 100 nM and below 1000 nM, respectively.

As for `CCCOc1cccc(-c2cnc(Nc3ccc(N4CCN(C)CC4)cc3)o2)c1` [Example 17, N-[4-(4-methylpiperazin-1-yl)phenyl]-5-(3-propoxyphenyl)-1,3-oxazol-2-amine], the figures for the IC50 in assay [1], in assay [2] and in assay [3] were below 100 nM, below 1000 nM and below 100 nM, respectively.

For `CN1CCN(c2ccc(Nc3ncc(-c4cccc(O)c4)o3)cc2)CC1` [Example 29, 3-(2-{[4-(4-methylpiperazin-1-yl)phenyl]amino}-1,3-oxazol-5-yl)phenol], the concentration for half-maximal inhibition (IC50) in assay [1] is below 100 nM; in assay [3] it was below 1000 nM.

`COc1cccc(-c2cnc(Nc3ccc(-n4ccnc4)nc3)o2)c1` [Example 32, 6-(1H-imidazol-1-yl)-N-[5-(3-methoxyphenyl)-1,3-oxazol-2-yl]pyridin-3-amine] came in with a concentration for half-maximal inhibition (IC50) in assay [1] below 10000 nM.

As for `COc1cccc(-c2cnc(Nc3ccc(N4CCCCC4)nc3)o2)c1` [Example 33, N-[5-(3-methoxyphenyl)-1,3-oxazol-2-yl]-6-piperdin-1-ylpyridin-3-amine], the half-maximal inhibitory concentration (IC50) in assay [1] is below 10000 nM.

In the case of `CN(C)Cc1ccc(Nc2ncc(-c3cccc(OC4CCCC4)c3)o2)cc1` [Example 41, 5-[3-(cyclopentyloxy)phenyl]-N-{4-[(dimethylamino)methyl]phenyl}-1,3-oxazol-2-amine], the values for the IC50 in assay [1] and in assay [3] were below 100 nM and below 1000 nM, respectively.

Regarding `CCCN1CCC(c2csc(Nc3ncc(-c4cccc(OC)c4)o3)n2)CC1` [Example 49, 5-(3-methoxyphenyl)-N-[4-(1-propylpiperidin-4-yl)-1,3-thiazol-2-yl]-1,3-oxazol-2-amine], the concentration for half-maximal inhibition (IC50) in assay [1] is below 1000 nM.
